In article PMC12423301, “Astrocytic monoamine oxidase B (MAOB)–gamma-aminobutyric acid (GABA) axis as a molecular brake on repair following spinal cord injury” (Signal Transduction and Targeted Therapy, 2025):
Where two headings read alike, the source gives them in different places.

Legend:
[1] = Preclinical pharmacokinetics in mice; format: in vivo, mouse
[2] = Genetic toxicology (reverse mutation, chromosomal aberration, micronucleus)
Experimental: Protocol No. NB_KDS_ADP1_21 Confidential administration of the test substance to rats at a dose of 50-200 mg/kg daily for 2 weeks, there were no deaths.
As a result of oral administration to rats at doses of 30, 50, 75 and 100 mg/kg once daily for 4 weeks, […]
testis, epididymis and lungs. Renal epithelial hyperplasia and inflammatory cells infiltration in the renal pelvis observed in the male and female dose groups of 75 mg/kg or more, germ cell degeneration/loss and seminiferous tubules atrophy observed in the male dose groups of 75 mg/kg or more, and vacuole/degeneration of outer medullary tubules and basophilic tubules observed in the female dose groups were judged to be adverse effects due to administration of the test substance. Proximal tubular hyaline granules in the kidney, basophilic tubules, testicular germ cell degeneration/loss, and alveolar macrophage aggregation in the lungs(females) were observed even after a 2-week recovery period. Accordingly, in repeated administrations of rats for 4 weeks, the NOAEL(No Observed Adverse Effect Level) was determined to be 50 mg/kg/day for males and 30 mg/kg for females. As a result of repeated oral administrations of 0, 25, 50 or 100 mg/kg/day for 2 weeks to Cynomolgus […]
male dose group of 50 mg/kg/day, and a distal tubule/collecting duct dilatation and papillary duct epithelial cell […]
the NOAEL was judged as 40 mg/kg for both males and females. As a result of the safety pharmacology test, […]
the genetic toxicology, the reverse mutation test, the chromosomal aberration assay, and the micronucleus assay […]
In a pharmacokinetic study, plasma PK parameters were measured after a single oral administration of […]
a result of measuring excretion into urine, feces, expiration, and bile, 6.9% was excreted in urine and 48.5% in feces, respectively, up to 168 hours after administration. Excretion to air through respiration was about 0.0% until 48 hours after administration, and 44.1% of the administered radioactivity concentration was present in the body (carcass). […]

[3] = ICR mouse, 5 mg/kg single intravenous administration
[4] = in vivo, APP/PS1 mouse, 1 mg/kg single oral administration
[5] = in vivo, APP/PS1 mouse, 10 mg/kg single oral administration
[6] = in vivo, ICR mouse, 5 mg/kg single intravenous administration
[7] = in vivo, ICR mouse, 5 mg/kg single oral administration
[8] = in vivo, ICR mouse, 10 mg/kg single oral administration
[9] = in vivo, ICR mouse, 30 mg/kg single oral administration

Compound: CS(=O)(=O)O.C[C@H](NCc1ccc(-c2ccc(C(F)(F)F)cc2)cc1)C(N)=O [KDS2010, (S)-2-(((4’-Trifluoromethylbiphenyl-4-yl)methyl)amino)propanamide methane-sulfonate]
- CL/F [1, 3]: 28.47 ± 1.37 mL/min/kg
- Vd/F [1, 3]: 10.439 ± 0.682 L/kg
- AUC(0-inf) [1, 4]: 1130 ± 173 ng·h/mL
- half-life [1, 4]: 4.76 ± 0.43 h
- CL/F ([1]; in vivo, APP/PS1 mouse, 1 mg/kg single oral administration, read-out: CL/F (converted)): 15 mL/min/kg
- Vd/F ([1]; in vivo, APP/PS1 mouse, 1 mg/kg single oral administration, read-out: Vd/F): 6.13 ± 0.767 L/kg
- AUC(0-inf) [1, 5]: 12900 ± 740 ng·h/mL
- half-life [1, 5]: 5.7 ± 0.7 h
- CL/F ([1]; in vivo, APP/PS1 mouse, 10 mg/kg single oral administration, read-out: CL/F (converted)): 14.3 mL/min/kg
- Vd/F ([1]; in vivo, APP/PS1 mouse, 10 mg/kg single oral administration, read-out: Vd/F): 7.01 ± 0.934 L/kg
- AUC(0-inf) [1, 6]: 3590 ± 71.7 ng·h/mL
- half-life [1, 6]: 4.2 ± 0.2 h
- AUC(0-inf) [1, 7]: 4180 ± 100 ng·h/mL
- half-life [1, 7]: 4.2 ± 0.1 h
- CL/F ([1]; in vivo, ICR mouse, 5 mg/kg single oral administration, read-out: CL/F (converted)): 18 mL/min/kg
- Vd/F ([1]; in vivo, ICR mouse, 5 mg/kg single oral administration, read-out: Vd/F): 6.6 ± 0.38 L/kg
- AUC(0-inf) [1, 8]: 7920 ± 457 ng·h/mL
- half-life [1, 8]: 4.4 ± 0.2 h
- CL/F ([1]; in vivo, ICR mouse, 10 mg/kg single oral administration, read-out: CL/F (converted)): 22 mL/min/kg
- Vd/F ([1]; in vivo, ICR mouse, 10 mg/kg single oral administration, read-out: Vd/F): 8.41 ± 0.843 L/kg
- AUC(0-inf) [1, 9]: 27100 ± 1090 ng·h/mL
- half-life [1, 9]: 4.3 ± 0.4 h
- CL/F ([1]; in vivo, ICR mouse, 30 mg/kg single oral administration, read-out: CL/F (converted)): 14.5 mL/min/kg
- Vd/F ([1]; in vivo, ICR mouse, 30 mg/kg single oral administration, read-out: Vd/F): 5.45 ± 0.512 L/kg
- chromosomal aberration assay [2]: negative
- micronucleus assay [2]: negative
- reverse mutation test [2]: negative
